26 compounds from patent publication US9309254B2, “Pyrimidinyl-diazospiro compounds” (CONVERGENCE PHARMACEUTICALS LIMITED, priority 2012, dated 2016) can be followed below.

Counter-ions that a name gives are not always drawn. Like-named read-outs stand apart in the source and are kept apart here.

In this test the target is T1, hNaV1.7 (Homo sapiens, UniProt Q15858).
T1 construct: expressed in transfected cells; host or cells: HEK293
The test is described as follows: QPatch NaV1.7 assay. The class given is cell-based. Particulars: HEK293-hNaV1.7 cells, QPatch16x. The protocol: The compounds of the invention were tested in a QPatch NaV1.7 assay.
HEK293-hNaV1.7 cells were grown in DMEM-F12+10% FBS culture media at 37° C. At a confluency of 50-70% cells were dissociated from culture flasks & triturated to ensure unicellular cell suspension; cell density was measured & adjusted to 2-3×10^6 cells/ml. Recordings were obtained using QPatch16x. The external solution was (in mM): NaCl, 128; KCl, 5; MgCl2, 2; CaCl2, 2; Glucose, 30; HEPES, 15; pH 7.3, 305-315 mOsm. Following seal formation and whole-cell access using internal solution (containing in mM: CsF, 135; EGTA/CsOH, 1/5; HEPES 10; NaCl, 10; pH 7.3, 310-320mOsM), voltage pulse protocols were applied. Initially a steady state inactivation voltage protocol was used to determine the half-maximal voltage for steady state inactivation (V1/2 SSI). Two holding voltages were used to determine test drug inhibition: −90 mV, where most of the channels are in a closed state; and V1/2 SSI, where half of the channels are inactivated. Currents were elicited every 10 seconds by stepping to a membrane potential of 0 mV for 20 ms. Four-point cumulative concentration responses were derived by determining the peak current amplitude at each concentration of test drug over 120 second application. Curves were fitted with the Hill equation yielding pIC50 values at −90 mV and V1/2 SSI holding potentials.
(In general: In patch-clamp work, channel activity is measured electrically.)

Where [1] appears, read: holding voltage V1/2 SSI, where half of the channels are inactivated, read-out: QP Nav1.7 SSI vhalf pIC50 (converted).
The mark [2] stands for this setting: holding voltage −90 mV, where most of the channels are in a closed state, read-out: QP Nav1.7 - 90 mV pIC50 (converted).

T1 sequence (Q15858 whole entry): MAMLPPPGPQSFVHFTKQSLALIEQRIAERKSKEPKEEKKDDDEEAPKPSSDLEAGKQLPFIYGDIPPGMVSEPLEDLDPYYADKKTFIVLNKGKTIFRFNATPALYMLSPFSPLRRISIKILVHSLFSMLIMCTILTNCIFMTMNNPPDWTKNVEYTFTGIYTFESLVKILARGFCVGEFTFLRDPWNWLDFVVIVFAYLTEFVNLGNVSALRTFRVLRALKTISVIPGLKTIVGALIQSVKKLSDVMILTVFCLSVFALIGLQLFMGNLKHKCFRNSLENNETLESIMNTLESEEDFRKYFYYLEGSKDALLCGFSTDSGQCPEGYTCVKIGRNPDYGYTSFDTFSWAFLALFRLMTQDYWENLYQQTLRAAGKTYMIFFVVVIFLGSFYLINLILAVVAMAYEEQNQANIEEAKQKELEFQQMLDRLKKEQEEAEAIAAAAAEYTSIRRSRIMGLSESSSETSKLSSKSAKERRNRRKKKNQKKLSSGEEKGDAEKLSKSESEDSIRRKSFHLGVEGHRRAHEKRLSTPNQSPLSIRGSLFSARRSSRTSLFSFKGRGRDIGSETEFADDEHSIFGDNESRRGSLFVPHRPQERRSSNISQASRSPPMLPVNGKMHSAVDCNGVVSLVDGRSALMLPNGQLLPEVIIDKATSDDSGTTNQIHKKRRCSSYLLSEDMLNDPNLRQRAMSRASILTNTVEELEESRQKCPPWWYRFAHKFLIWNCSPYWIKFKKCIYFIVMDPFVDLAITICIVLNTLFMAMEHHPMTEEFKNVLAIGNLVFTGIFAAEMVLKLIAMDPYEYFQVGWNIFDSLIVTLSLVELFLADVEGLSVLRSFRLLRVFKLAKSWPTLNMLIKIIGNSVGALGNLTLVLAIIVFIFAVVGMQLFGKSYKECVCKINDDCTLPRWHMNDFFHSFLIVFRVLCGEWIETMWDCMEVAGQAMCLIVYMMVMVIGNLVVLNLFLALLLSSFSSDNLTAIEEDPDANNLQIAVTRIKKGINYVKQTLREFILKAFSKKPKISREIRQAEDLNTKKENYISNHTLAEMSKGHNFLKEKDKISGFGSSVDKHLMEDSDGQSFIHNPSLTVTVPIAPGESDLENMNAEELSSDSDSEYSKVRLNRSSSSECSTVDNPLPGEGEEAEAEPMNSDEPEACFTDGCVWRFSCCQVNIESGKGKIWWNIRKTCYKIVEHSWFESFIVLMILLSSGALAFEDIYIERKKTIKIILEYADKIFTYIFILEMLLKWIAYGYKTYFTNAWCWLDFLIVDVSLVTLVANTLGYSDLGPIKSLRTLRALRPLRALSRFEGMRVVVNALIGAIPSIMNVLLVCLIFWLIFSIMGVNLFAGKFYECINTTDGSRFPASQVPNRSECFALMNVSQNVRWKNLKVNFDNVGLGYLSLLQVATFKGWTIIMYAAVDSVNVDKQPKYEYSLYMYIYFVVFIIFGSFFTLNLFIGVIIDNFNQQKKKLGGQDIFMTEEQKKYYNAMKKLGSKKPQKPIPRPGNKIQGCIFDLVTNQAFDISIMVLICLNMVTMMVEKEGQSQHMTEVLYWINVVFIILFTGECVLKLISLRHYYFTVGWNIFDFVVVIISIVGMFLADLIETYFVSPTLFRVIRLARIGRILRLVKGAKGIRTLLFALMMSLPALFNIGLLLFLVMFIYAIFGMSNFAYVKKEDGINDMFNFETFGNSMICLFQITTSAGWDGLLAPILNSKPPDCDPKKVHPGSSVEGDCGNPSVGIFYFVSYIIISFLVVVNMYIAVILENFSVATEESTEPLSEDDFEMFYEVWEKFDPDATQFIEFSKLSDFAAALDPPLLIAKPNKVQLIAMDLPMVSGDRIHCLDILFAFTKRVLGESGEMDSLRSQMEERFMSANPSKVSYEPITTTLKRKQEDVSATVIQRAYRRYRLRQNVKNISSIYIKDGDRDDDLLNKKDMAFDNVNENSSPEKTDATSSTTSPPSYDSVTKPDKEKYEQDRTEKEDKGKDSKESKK

On to `Cc1cc(-c2ccc(C(F)(F)F)cc2)nc([C@@H]2CC[C@@]3(CCN(C)C3=O)N2)n1` (single isomer, unassigned) [Example 22, hydrochloride], for which the IC50 was 63.1 µM under setting [1] and 7940 µM under setting [2].

On to `CN1CC[C@@]2(CC[C@H](c3nccc(-c4ccc(C(F)(F)F)cc4)n3)N2)C1=O` [Example 1, (2R,5S)-7-Methyl-2-[4-[4-(trifluoromethyl)phenyl]pyrimidin-2-yl]-1,7-diazaspiro[4.4]nonan-6-one hydrochloride], for which the IC50 under setting [1] was 10 µM and the IC50 under setting [2] is 126 µM.

Take `CN1CC[C@@]2(CC[C@@H](c3nccc(-c4ccc(C(F)(F)F)cc4)n3)N2)C1=O` [Example 2, (2S,5S)-7-Methyl-2-[4-[4-(trifluoromethyl)phenyl]pyrimidin-2-yl]-1,7-diazaspiro[4.4]nonan-6-one hydrochloride]: the IC50 is 63.1 µM under setting [1] and 398 µM under setting [2].

With `CN1CC[C@]2(CC[C@@H](c3nccc(-c4ccc(C(F)(F)F)cc4)n3)N2)C1=O` [Example 3, (2S,5R)-7-Methyl-2-[4-[4-(trifluoromethyl)phenyl]pyrimidin-2-yl]-1,7-diazaspiro[4.4]nonan-6-one hydrochloride], the IC50 reads like this: under setting [1], 31.6 µM; under setting [2], 158 µM.

Consider `CN1CC[C@]2(CC[C@H](c3nccc(-c4ccc(C(F)(F)F)cc4)n3)N2)C1=O` [Example 4, (2R,5R)-7-Methyl-2-[4-[4-(trifluoromethyl)-phenyl]-pyrimidin-2-yl]-1,7-diazaspiro[4.4]nonan-6-one hydrochloride], for which the IC50 was 39.8 µM under setting [1] and 251 µM under setting [2].

As for `Cc1cc(-c2ccc(C(F)(F)F)cc2)nc([C@@H]2CC[C@]3(CCN(C)C3=O)N2)n1` [Example 5, (2S,5R)-7-Methyl-2-[4-methyl-6-[4-(trifluoromethyl)phenyl]pyrimidin-2-yl]-1,7-diazaspiro[4.4]nonan-6-one hydrochloride], the IC50 by setting is: under setting [1], 100 µM; under setting [2], 79.4 µM.

For the compound `Cc1cc(-c2ccc(C(F)(F)F)cc2)nc([C@H]2CC[C@]3(CCN(C)C3=O)N2)n1` [Example 6, (2R,5R)-7-Methyl-2-[4-methyl-6-[4-(trifluoromethyl)phenyl]pyrimidin-2-yl]-1,7-diazaspiro[4.4]nonan-6-one hydrochloride], the IC50 by setting is: under setting [1], 79.4 µM; under setting [2], 316 µM.

As for `Cc1cc(-c2ccc(C(F)(F)F)cc2)nc([C@H]2CC[C@@]3(CCN(C)C3=O)N2)n1.Cl` [Example 7, (2R,5S)-7-Methyl-2-[4-methyl-6-[4-(trifluoromethyl)-phenyl]pyrimidin-2-yl]-1,7-diazaspiro[4.4]nonan-6-one hydrochloride], for the setting “holding voltage V1/2 SSI, where half of the channels are inactivated”, the “QP Nav1.7 SSI vhalf pIC50” value came out at 5.7. In addition, under setting [2], the IC50 was 126 µM.

In the case of `CCOc1ccc(F)c(-c2cc(C)nc([C@@H]3CC[C@]4(CCN(C)C4=O)N3)n2)c1` [Example 8, (2S,5R)-2-[4-(5-Ethoxy-2-fluoro-phenyl)-6-methyl-pyrimidin-2-yl]-7-methyl-1,7-diazaspiro[4.4]nonan-6-one hydrochloride], the IC50 by setting is: under setting [1], 2.51 µM; under setting [2], 39.8 µM.

For the compound `CCOc1ccc(F)c(-c2cc(C)nc([C@H]3CC[C@]4(CCN(C)C4=O)N3)n2)c1` [Example 9, (2R,5R)-2-[4-(5-Ethoxy-2-fluoro-phenyl)-6-methyl-pyrimidin-2-yl]-7-methyl-1,7-diazaspiro[4.4]nonan-6-one hydrochloride], the IC50 reads like this: under setting [1], 1.58 µM; under setting [2], 12.6 µM.

For the compound `CCOc1ccc(F)c(-c2cc(C)nc([C@H]3CC[C@@]4(CCN(C)C4=O)N3)n2)c1` [Example 10, (2R,5S)-2-[4-(5-Ethoxy-2-fluoro-phenyl)-6-methyl-pyrimidin-2-yl]-7-methyl-1,7-diazaspiro[4.4]nonan-6-one hydrochloride], the IC50 under setting [1] is 1.58 µM and the IC50 under setting [2] was 20 µM.

Regarding `CCOc1ccc(F)c(-c2cc(C)nc([C@@H]3CC[C@@]4(CCN(C)C4=O)N3)n2)c1` [Example 11, (2S,5S)-2-[4-(5-Ethoxy-2-fluoro-phenyl)-6-methyl-pyrimidin-2-yl]-7-methyl-1,7-diazaspiro[4.4]nonan-6-one hydrochloride], the IC50 under setting [1] is 3.98 µM and the IC50 under setting [2] is 79.4 µM.

With `CCOc1ccc(F)c(-c2cc(C)nc([C@H]3CC[C@]4(CCCNC4=O)N3)n2)c1` [Example 12, hydrochloride], the IC50 under setting [1] is 2 µM and the IC50 under setting [2] was 20 µM.

With `CCOc1ccc(F)c(-c2cc(C)nc([C@@H]3CC[C@]4(CCCNC4=O)N3)n2)c1` [Example 13, hydrochloride], the IC50 by setting is: under setting [1], 1.58 µM; under setting [2], 7.94 µM.

As to `CCOc1ccc(F)c(-c2ccnc([C@H]3CC[C@]4(CCN(C)C4=O)N3)n2)c1` [Example 14, (2R,5R)-2-[4-(5-Ethoxy-2-fluoro-phenyl)pyrimidin-2-yl]-7-methyl-1,7-diazaspiro[4.4]nonan-6-one hydrochloride], the IC50 is 1.26 µM under setting [1] and 20 µM under setting [2].

Consider `CCOc1ccc(F)c(-c2ccnc([C@@H]3CC[C@]4(CCN(C)C4=O)N3)n2)c1` [Example 15, (2S,5R)-2-[4-(5-Ethoxy-2-fluoro-phenyl)pyrimidin-2-yl]-7-methyl-1,7-diazaspiro[4.4]nonan-6-one hydrochloride], for which the IC50 reads like this: under setting [1], 12.6 µM; under setting [2], 126 µM.

In the case of `CCOc1ccc(F)c(-c2ccnc([C@@H]3CC[C@@]4(CCN(C)C4=O)N3)n2)c1` [Example 16, (2S,5S)-2-[4-(5-Ethoxy-2-fluoro-phenyl)pyrimidin-2-yl]-7-methyl-1,7-diazaspiro[4.4]nonan-6-one hydrochloride], the IC50 reads like this: under setting [1], 12.6 µM; under setting [2], 126 µM.

With `CCOc1ccc(F)c(-c2ccnc([C@H]3CC[C@@]4(CCN(C)C4=O)N3)n2)c1` [Example 17, (2R,5S)-2-[4-(5-Ethoxy-2-fluoro-phenyl)pyrimidin-2-yl]-7-methyl-1,7-diazaspiro[4.4]nonan-6-one hydrochloride], the IC50 reads like this: under setting [1], 10 µM; under setting [2], 63.1 µM.

As for `CN1CC[C@@]2(CC[C@H](c3nccc(-c4cccc(OC(F)(F)F)c4)n3)N2)C1=O` [Example 18, (2R,5S)-7-Methyl-2-[4-[3-(trifluoromethoxy)phenyl]pyrimidin-2-yl]-1,7-diazaspiro[4.4]nonan-6-one hydrochloride], the IC50 under setting [1] is 12.6 µM and the IC50 under setting [2] is 126 µM.

On to `CN1CC[C@@]2(CC[C@@H](c3nccc(-c4cccc(OC(F)(F)F)c4)n3)N2)C1=O` [Example 19, (2S,5S)-7-Methyl-2-[4-[3-(trifluoromethoxy)phenyl]pyrimidin-2-yl]-1,7-diazaspiro[4.4]nonan-6-one hydrochloride], for which the IC50 under setting [1] is 20 µM and the IC50 under setting [2] is 200 µM.

`CN1CC[C@]2(CC[C@@H](c3nccc(-c4cccc(OC(F)(F)F)c4)n3)N2)C1=O` [Example 20, (2S,5R)-7-Methyl-2-[4-[3-(trifluoromethoxy)phenyl]pyrimidin-2-yl]-1,7-diazaspiro[4.4]nonan-6-one hydrochloride]: the IC50 was 25.1 µM under setting [1] and 200 µM under setting [2].

Regarding `CN1CC[C@]2(CC[C@H](c3nccc(-c4cccc(OC(F)(F)F)c4)n3)N2)C1=O` [Example 21, (2R,5R)-7-Methyl-2-[4-[3-(trifluoromethoxy)phenyl]pyrimidin-2-yl]-1,7-diazaspiro[4.4]nonan-6-one hydrochloride], the IC50 is 15.8 µM under setting [1] and 200 µM under setting [2].

With `CC(C)Oc1ccc(-c2ccnc([C@H]3CC[C@]4(CCN(C)C4=O)N3)n2)cc1` [Example 23, (2R,5R)-2-[4-(4-Isopropoxyphenyl)pyrimidin-2-yl]-7-methyl-1,7-diazaspiro[4.4]nonan-6-one hydrochloride], the IC50 was 63.1 µM under setting [1] and 1580 µM under setting [2].

For `CC(C)Oc1ccc(-c2ccnc([C@@H]3CC[C@]4(CCN(C)C4=O)N3)n2)cc1` [Example 24, (2S,5R)-2-[4-(4-Isopropoxyphenyl)pyrimidin-2-yl]-7-methyl-1,7-diazaspiro[4.4]nonan-6-one hydrochloride], the IC50 by setting is: under setting [1], 20 µM; under setting [2], 158 µM.

Turning to `CC(C)Oc1ccc(-c2ccnc([C@H]3CC[C@@]4(CCN(C)C4=O)N3)n2)cc1` [Example 25, (2R,5S)-2-[4-(4-Isopropoxyphenyl)pyrimidin-2-yl]-7-methyl-1,7-diazaspiro[4.4]nonan-6-one hydrochloride], the IC50 was 7.94 µM under setting [1] and 50.1 µM under setting [2].

For `CC(C)Oc1ccc(-c2ccnc([C@@H]3CC[C@@]4(CCN(C)C4=O)N3)n2)cc1` [Example 26, (2S,5S)-2-[4-(4-Isopropoxyphenyl)pyrimidin-2-yl]-7-methyl-1,7-diazaspiro[4.4]nonan-6-one hydrochloride], the IC50 is, setting by setting: under setting [1], 50.1 µM; under setting [2], 631 µM.
